# Measured values from PubChem BioAssay (NCI).
#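 Briefly, cells in 96-well plates were exposed to five compound concentrations for 48 h, and endpoints were estimated by linear interpolation. At the GI50, growth is halved. At the TGI there is no net growth.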
# How the values were obtained:
# Assay in all cases: inhibition of tumour cell growth, NCI panel, 48 h
# MCF7 breast = test system: MCF7 breast
# SK-MEL-28 melanoma = test system: SK-MEL-28 melanoma
# SK-OV-3 ovarian = test system: SK-OV-3 ovarian
# EKVX NSCLC = test system: EKVX NSCLC
# HOP-62 NSCLC = test system: HOP-62 NSCLC
# T-47D breast = test system: T-47D breast
# NCI-H23 lung = test system: NCI-H23 lung
# SN12C renal = test system: SN12C renal
# ACHN renal = test system: ACHN renal
# HS 578T breast = test system: HS 578T breast
# NCI-H226 lung = test system: NCI-H226 lung
# MDA-MB-231 breast = test system: MDA-MB-231 breast
# DU-145 prostate = test system: DU-145 prostate
# MALME-3M melanoma = test system: MALME-3M melanoma
# RXF 393 renal = test system: RXF 393 renal
# HT29 colon = test system: HT29 colon
# MDA-MB-468 breast = test system: MDA-MB-468 breast
# M14 melanoma = test system: M14 melanoma
# 786-0 renal = test system: 786-0 renal
# SF-539 CNS = test system: SF-539 CNS
# SW-620 colon = test system: SW-620 colon
# UACC-62 melanoma = test system: UACC-62 melanoma
# OVCAR-4 ovarian = test system: OVCAR-4 ovarian
# SNB-19 CNS = test system: SNB-19 CNS
# HCT-116 colon = test system: HCT-116 colon
# TK-10 renal = test system: TK-10 renal
# NCI-H522 lung = test system: NCI-H522 lung
# OVCAR-8 ovarian = test system: OVCAR-8 ovarian
smiles,measurement,setting,value
COc1cc2oc(-c3cccc(C(=O)Nc4ccc(Cl)cc4)c3)cc(=O)c2c(OCCN)c1OC,GI50,MCF7 breast,1.66 µM
same,TGI,MCF7 breast,3.14 µM
same,GI50,SK-MEL-28 melanoma,1.64 µM
same,TGI,SK-MEL-28 melanoma,3.03 µM
same,GI50,SK-OV-3 ovarian,11.8 µM
same,TGI,SK-OV-3 ovarian,31.9 µM
same,GI50,EKVX NSCLC,5.66 µM
same,TGI,EKVX NSCLC,18.6 µM
same,GI50,HOP-62 NSCLC,1.82 µM
same,TGI,HOP-62 NSCLC,4.19 µM
same,GI50,T-47D breast,3.74 µM
same,TGI,T-47D breast,23.4 µM
same,GI50,NCI-H23 lung,6.22 µM
same,TGI,NCI-H23 lung,19 µM
same,GI50,SN12C renal,6.12 µM
same,TGI,SN12C renal,19 µM
same,GI50,ACHN renal,10.6 µM
same,TGI,ACHN renal,22.4 µM
same,GI50,HS 578T breast,5.21 µM
same,TGI,HS 578T breast,25.3 µM
same,GI50,NCI-H226 lung,13.4 µM
same,TGI,NCI-H226 lung,30.3 µM
same,GI50,MDA-MB-231 breast,2.63 µM
same,TGI,MDA-MB-231 breast,7.92 µM
same,GI50,DU-145 prostate,5.98 µM
same,TGI,DU-145 prostate,18.3 µM
same,GI50,MALME-3M melanoma,1.8 µM
same,TGI,MALME-3M melanoma,3.35 µM
same,GI50,RXF 393 renal,3.23 µM
same,TGI,RXF 393 renal,12.7 µM
same,GI50,HT29 colon,2.28 µM
same,TGI,HT29 colon,5.62 µM
same,GI50,MDA-MB-468 breast,1.52 µM
same,TGI,MDA-MB-468 breast,3.03 µM
same,GI50,M14 melanoma,2.02 µM
same,TGI,M14 melanoma,4 µM
same,GI50,786-0 renal,2.04 µM
same,TGI,786-0 renal,4.14 µM
same,GI50,SF-539 CNS,3.13 µM
same,TGI,SF-539 CNS,10.2 µM
same,GI50,SW-620 colon,1.85 µM
same,TGI,SW-620 colon,3.46 µM
same,GI50,UACC-62 melanoma,9.27 µM
same,TGI,UACC-62 melanoma,22 µM
same,GI50,OVCAR-4 ovarian,4.38 µM
same,TGI,OVCAR-4 ovarian,16.8 µM
same,GI50,SNB-19 CNS,4.02 µM
same,TGI,SNB-19 CNS,13.9 µM
same,GI50,HCT-116 colon,2.39 µM
same,TGI,HCT-116 colon,5.84 µM
same,GI50,TK-10 renal,7.19 µM
same,TGI,TK-10 renal,21.8 µM
same,GI50,NCI-H522 lung,4.24 µM
same,TGI,NCI-H522 lung,19.8 µM
same,GI50,OVCAR-8 ovarian,4.09 µM
same,TGI,OVCAR-8 ovarian,19.4 µM
